According to patent US11634425B2, “Pharmaceutical compounds” (priority 2019, dated 2023):
pEC50: −log10 of the molar value.

Assays:
RSV A2 = experiment: RSV plaque reduction assay; type: cell-based, respiratory syncytial virus (RSV); conditions: human respiratory syncytial virus, HepG2, Hep-G2 cells, mean of at least two experiments
Procedure: (§1) Compounds were subjected to RSV plaque reduction assays according to the following protocol. Plaque EC50 and cell toxicity CC50 values are a mean of at least two experiments and figures are rounded to whole units.
Hep-G2 cells (ECACC, 85011430) were passaged in flasks and seeded in 24-well plates in DMEM containing antibiotics and supplemented with 10% FBS. During inoculation and subsequent incubation, cells were cultured in DMEM containing 2% FBS. 100 plaque forming unit/well of RSV (RSV A2 ECACC, 0709161v) was mixed with eight serial dilutions of compound. Subsequently, 100 μL of the virus/compound mixtures was added to confluent Hep-G2 cell monolayers. The cells and virus/compound mixtures were incubated at 37° C. in a humidified 5% CO2 incubator for 2 h prior to removal of the inoculum and addition of 1 mL of overlay (DMEM containing 2% FBS and 0.8% CMC) containing compound dilutions. The cells and were incubated at 37° C. in a humidified 5% CO2 incubator for 2 days.
Cells were washed with PBS before adding 75/25% […] EtOH/MeOH, for 3 min. Fixative was removed and plates were washed with PBS. A pre-titrated amount of the primary antibody was added in 200 μL PBS/2% milk powder, and plates incubated for 90 min at 37° C. The plates were washed 3 times with PBS/0.05% Tween20 before addition of rabbit anti-goat horse radish peroxidase in 200 μL PBS/2% milk powder, and incubated for 1 h at 37° C. Following three wash steps with PBS/0.05% Tween20, 200 μL ready-to-use TrueBlue was added and plates were incubated at rt for 10-15 min before washing with water. After removal of water, plates were air-dried in the dark.
(§2) Plates were scanned and analysed using the Immunospot S6 Macro analyser, which is equipped with BioSpot analysis software for counting immunostained plaques (virospots). Plaque counts were used to calculate % c infection relative to the mean of the plaque count in the virus control wells for RSV. The EC50 value was calculated as 50% reduction in signal, respectively, by interpolation of inhibition curves fitted with a 4-parameter nonlinear regression with a variable slope in Dotmatics. Plaque EC50 and cell toxicity CC50 values are a mean of at least two experiments and figures are rounded to whole units.

Cell cytotoxicity (CC50) = type: cell-based; conditions: human; mean of at least two experiments
Description: as §1, §2

Compound: CC(C)c1ccc(-c2nn3cccnc3c2C(=O)N[C@H]2N=C(c3ccccc3)c3ccccc3NC2=O)cn1 [Example 58, 2-(6-Propan-2-ylpyridin-3-yl)-N-[(3S)-2-oxo-5-phenyl-1,3-dihydro-1,4-benzodiazepin-3-yl]pyrazolo[1,5-a]pyrimidine-3-carboxamide]
- pEC50 (RSV A2): 7.16
- CC50 (Cell cytotoxicity (CC50)): > 25000 nM

Compound: CCNc1ccc(-c2nn3cccnc3c2C(=O)N[C@H]2N=C(c3ccccc3)c3ccccc3NC2=O)c(F)n1 [Example 65, 2-[6-(Ethylamino)-2-fluoropyridin-3-yl]-N-[(3S)-2-oxo-5-phenyl-1,3-dihydro-1,4-benzodiazepin-3-yl]pyrazolo[1,5-a]pyrimidine-3-carboxamide]
- pEC50 (RSV A2): 7.74
- CC50 (Cell cytotoxicity (CC50)): > 25000 nM

Compound: CCNc1ccc(-c2nn3cccnc3c2C(=O)N[C@H]2N=C(c3ccccc3)c3cccc(F)c3NC2=O)c(F)n1 [Example 66, 2-[6-(Ethylamino)-2-fluoropyridin-3-yl]-N-[(3S)-9-fluoro-2-oxo-5-phenyl-1,3-dihydro-1,4-benzodiazepin-3-yl]pyrazolo[1,5-a]pyrimidine-3-carboxamide]
- pEC50 (RSV A2): 7.89
- CC50 (Cell cytotoxicity (CC50)): > 25000 nM

Compound: CC1COCCN1c1ccc(-c2nn3cccnc3c2C(=O)N[C@H]2N=C(c3ccccc3)c3ccccc3NC2=O)cn1 (stereo partly drawn) [Example 67, 2-[6-(3-Methylmorpholin-4-yl)pyridin-3-yl]-N-[(3S)-2-oxo-5-phenyl-1,3-dihydro-1,4-benzodiazepin-3-yl]pyrazolo[1,5-a]pyrimidine-3-carboxamide]
- pEC50 (RSV A2): 6.85
- CC50 (Cell cytotoxicity (CC50)): > 25000 nM

Compound: CC1COCCN1c1ccc(-c2nn3cccnc3c2C(=O)N[C@H]2N=C(c3ccccc3)c3cccc(F)c3NC2=O)cn1 (stereo partly drawn) [Example 68, 2-[6-(3-Methylmorpholin-4-yl)pyridin-3-yl]-N-[(3S)-9-fluoro-2-oxo-5-phenyl-1,3-dihydro-1,4-benzodiazepin-3-yl]pyrazolo[1,5-a]pyrimidine-3-carboxamide]
- pEC50 (RSV A2): 6.94
- CC50 (Cell cytotoxicity (CC50)): > 25000 nM

Compound: Cn1ccc2cc(-c3nn4cccnc4c3C(=O)N[C@H]3N=C(c4ccccc4)c4cccc(F)c4NC3=O)cnc21 [Example 71, N-[(3S)-9-fluoro-2-oxo-5-phenyl-1,3-dihydro-1,4-benzodiazepin-3-yl]-2-(1-methylpyrrolo[2,3-b]pyridin-5-yl)pyrazolo[1,5-a]pyrimidine-3-carboxamide]
- pEC50 (RSV A2): 7.00
- CC50 (Cell cytotoxicity (CC50)): > 25000 nM

Compound: CC(C)Nc1ccc(-c2nn3cccnc3c2C(=O)N[C@H]2N=C(c3ccccc3)c3ccccc3NC2=O)cn1 [Example 73, N-[(3S)-2-oxo-5-phenyl-1,3-dihydro-1,4-benzodiazepin-3-yl]-2-[6-(propan-2-ylamino)pyridin-3-yl]pyrazolo[1,5-a]pyrimidine-3-carboxamide]
- pEC50 (RSV A2): 7.35
- CC50 (Cell cytotoxicity (CC50)): > 25000 nM

Compound: COc1ccc(-c2nn3cccnc3c2C(=O)N[C@H]2N=C(c3ccccc3)c3cccc(F)c3NC2=O)cn1 [Example 76, N-[(3S)-9-fluoro-2-oxo-5-phenyl-1,3-dihydro-1,4-benzodiazepin-3-yl]-2-(6-methoxypyridin-3-yl)pyrazolo[1,5-a]pyrimidine-3-carboxamide]
- pEC50 (RSV A2): 7.03
- CC50 (Cell cytotoxicity (CC50)): > 25000 nM

Compound: CC(C)(O)Cc1ccc(-c2nn3cccnc3c2C(=O)N[C@H]2N=C(c3ccccc3)c3cccc(F)c3NC2=O)cn1 [Example 77, 2-[6-(2-Hydroxy-2-methylpropyl)pyridin-3-yl]-N-[(3S)-9-fluoro-2-oxo-5-phenyl-1,3-dihydro-1,4-benzodiazepin-3-yl]pyrazolo[1,5-a]pyrimidine-3-carboxamide]
- pEC50 (RSV A2): 6.98
- CC50 (Cell cytotoxicity (CC50)): > 25000 nM

Compound: O=C(N[C@H]1N=C(c2ccccc2)c2cccc(F)c2NC1=O)c1c(-c2ccccc2F)nc2ccc(N3CCOCC3)nn12 [Example 79, N-[(3S)-9-Fluoro-2-oxo-5-phenyl-1,3-dihydro-1,4-benzodiazepin-3-yl]-2-(2-fluorophenyl)-6-morpholin-4-ylimidazo[1,2-b]pyridazine-3-carboxamide]
- pEC50 (RSV A2): 7.59
- CC50 (Cell cytotoxicity (CC50)): > 25000 nM
